The source of these data is US7951777B2, “Compositions and methods for treatment of cardiovascular disease” (Vectus Biosystems Limited, priority 2004, dated 2011).

Entries after “also recorded” stand apart in the source; their conditions may differ.

The test system of data set [1] is WKY rats on high salt diet. Description: Effect of VIP fragments on myocardial fibrosis. The format is in vivo, rat. The settings on record: for degree of myocardial fibrosis: 5 pmol/kg/min for 4 weeks via Alzet minipump, compared with vehicle control, Masson Trichrome sections; for effectiveness on myocardial fibrosis relative to VIP: all peptides 5 pmol/kg/min for 4 weeks, FIGS. 8 to 10. The text has this:
To determine whether smaller VIP related peptides had any of the biological activities of the complete VIP molecule, particularly in reducing myocardial fibrosis, the degree of myocardial fibrosis after treatment with VIP(1-12) (SEQ ID No. 2) at 5 pmol/kg/min and VIP (6-28) (SEQ ID No. 3) at 5 pmol/kg/min for 4 weeks via Alzet minipump was compared with the complete VIP (5 pmol/kg/min) (SEQ ID No. 1) and vehicle control. The VIP fragments were purchased from Auspep (Melbourne, Australia).
Briefly, 14 week old WKY rats were commenced on high salt diet as described earlier. They underwent operative insertion of an Alzet minipump for infusion of VIP peptide or vehicle. After 4 weeks the rats were anaesthetised, the hearts harvested and myocardial fibrosis quantitated on Masson Trichrome sections using Image Pro Plus Version 5 (Cybernetics). […] FIGS. 8 to 10 show the results of these studies.

Data set [2] concerns SHR and WKY rats. Nature of the data set: Preliminary four-week VIP infusion in rat models of myocardial fibrosis. The format is in vivo. The settings on record: VIP 7.2 nmol/kg/day via Alzet mini pump for four weeks, compared to control groups. An excerpt: Further preliminary experiments have been conducted on a number of animal models, which encompass a range of fibrous tissue replacement, varying from mild to moderate to severe. The experiments on the animal models encompassed a variety of aetiologies (alone and in combination) and a range of levels of induced fibrosis. For these experiments two types of rats were used, spontaneously hypertensive rats (SHR) and normotensive control Wistar-Kyoto rats (WKY). The WKY rats were given: 1) low salt diet, 2) high salt diet, or 3) L-NAME (ω-monomethyl-nitro-L-arginine; 10 mg/kg/day) plus high salt diet. The SHR rats were given low or high salt diets. The effect of VIP infusion in diabetic heart disease was also studied in the WKY rate with streptozotocin induced diabetes.
In each treatment group, rats were randomised to VIP (SEQ ID No. 1) or vehicle infusion (n=24 in each group) for four weeks. VIP was administered via Alzet mini pump at a rate of 7.2 nmol/kg/day.
After four weeks, the rats were anaesthetised and the hearts were harvested. Myocardial VIP concentrations and myocardial fibrosis were quantitated.

For data set [3], the system named is WKY rats. Description: Acute VIP infusion, uptake of VIP by the myocardium. In kind it is in vivo, rat. The protocol:
In preliminary studies a series of acute infusion experiments have been conducted in animal models.
Fourteen week old WKY rats were randomised to low salt diet (0.008%), intermediate salt diet (2.2%), high salt diet (4.4%) or high salt diet plus L-NAME (10 mg/kg/day) in the drinking water for 4 weeks (n=16 rats per group). On the day of the experiment the rats were anaesthetised and venous and arterial cannulae inserted. After a one hour rest equilibration period the rats were randomised to vehicle control (Haemaccell, Aventis) or VIP (10 pmol/kg/min) infusion (SEQ ID No. 1) for one hour at an infusion rate of 0.017 ml/min. The hearts were then harvested, myocardial VIP concentrations were measured and myocardial fibrosis quantitated.
The difference between the mean myocardial VIP concentrations after VIP or control infusion is a measure of VIP uptake by the heart.
(§1) VIP was measured by radioimmunoassay in known manner (see Davis R. E., Shelley S., Macdonald G. J. & Duggan K. A. (1992) The effects of a high sodium diet on the metabolism and secretion of vasoactive intestinal peptide in the rabbit. J. Physiol. 451:17-23. Duggan K. A., Ye V. Z. C., Jones D. M. Davis R. E. & Macdonald G. J. (1995) Effects of Endopeptidase 24.11 blockade on plasma and tissue concentrations of vasoactive intestinal peptide Clin. Sci. 89:267-271). […]

Data set [4] concerns WKY rat fed a high salt diet. Nature of the data set: VIP infusion in model of myocardial fibrosis: high salt diet. The format is in vivo. As for the experimental part:
(§2) Three animal models of myocardial fibrosis were used (animals obtained from Australian Animal Resources, Perth, Western Australia, Australia) • i) WKY rat fed a high salt diet • ii) WKY rat fed a high salt diet and given L-NAME (ω-monomethyl-nitro-L-arginine, Sigma Chemical Co.) 10 mg/kg/day in the drinking water • iii) WKY rats with diabetes induced by streptozotocin injection 60 mg/kg
(§3) In each model the rats were randomised to VIP (H-[…]NH2, (SEQ ID No. 1) obtained from Auspep, Australia) or vehicle control (Haemaccel, Aventis) infusion for 4 weeks via Alzet minipump (n=6-8 each experimental group). The dose of VIP was 5 pmol/kg/min.
(§4) In models i) and ii) 14 week old WKY rats were commenced on high salt diet or high salt diet plus L-NAME. They underwent operative insertion of an Alzet minipump for infusion of VIP or vehicle. After 4 weeks the rats were anaesthetised and the hearts harvested. Myocardial VIP and myocardial fibrosis were quantitated.
(§5) Myocardial VIP concentrations and myocardial fibrosis were quantitated.
as §1

The subject of data set [5] is WKY rat fed a high salt diet and given L-NAME. Description: VIP infusion in model of myocardial fibrosis: high salt diet plus L-NAME. The format is in vivo. As for the experimental part:
as §2, §3, §4, §5, §1

Data set [6] concerns WKY rats with diabetes induced by streptozotocin injection. Description: VIP infusion in model of myocardial fibrosis: streptozotocin diabetes. The format is in vivo, rat. The settings on record: VIP 5 pmol/kg/min for 4 weeks after 8 weeks of diabetes; FIG. 6. The protocol: as §2, §3
In model iii) rats were injected with streptozotocin 60 mg/kg at 14 weeks of age. After 8 weeks the diabetic rats were randomised to VIP infusion (5 pmol/kg/min) (SEQ ID No. 1) or no treatment. VIP was administered as above. […]
as §5, §1

Data set [7] relates to isolated rat heart. The settings on record: heart perfused with VIP before ischaemia and reperfusion; cited from earlier work.
Data set [8] relates to isolated trabeculae from human hearts. The settings on record: atria and ventricles of hearts from previously healthy individuals; cited from earlier work.
The subject of data set [9] is normal heart. The settings on record: cited from earlier work.

Consider “VIP(6-28): active fragment of VIP, residues 6-28, purchased from Auspep (FTDNYTRLRKQMAVKKYLNSILN; listed as Homo sapiens)”, for which, in data set [1], the “degree of myocardial fibrosis” value is reported as “decreased the degree of myocardial fibrosis” and the “effectiveness on myocardial fibrosis relative to VIP” value is on record as “as effective as VIP”.

Regarding “VIP(1-12): active fragment of VIP, residues 1-12, purchased from Auspep (HSDAVFTDNYTR; listed as Homo sapiens)”, in [1], the “degree of myocardial fibrosis” value is recorded as “decreased the degree of myocardial fibrosis” and the “effectiveness on myocardial fibrosis relative to VIP” value is given as “approximately ⅓”.

Regarding `CC[C@H](C)[C@H](NC(=O)[C@H](CO)NC(=O)[C@H](CC(N)=O)NC(=O)[C@H](CC(C)C)NC(=O)[C@H](Cc1ccc(O)cc1)NC(=O)[C@H](CCCCN)NC(=O)[C@H](CCCCN)NC(=O)[C@@H](NC(=O)[C@H](C)NC(=O)[C@H](CCSC)NC(=O)[C@H](CCC(N)=O)NC(=O)[C@H](CCCCN)NC(=O)[C@H](CCCNC(=N)N)NC(=O)[C@H](CC(C)C)NC(=O)[C@H](CCCNC(=N)N)NC(=O)[C@@H](NC(=O)[C@H](Cc1ccc(O)cc1)NC(=O)[C@H](CC(N)=O)NC(=O)[C@H](CC(=O)O)NC(=O)[C@@H](NC(=O)[C@H](Cc1ccccc1)NC(=O)[C@@H](NC(=O)[C@H](C)NC(=O)[C@H](CC(=O)O)NC(=O)[C@H](CO)NC(=O)[C@@H](N)Cc1c[nH]cn1)C(C)C)[C@@H](C)O)[C@@H](C)O)C(C)C)C(=O)N[C@@H](CC(C)C)C(=O)N[C@@H](CC(N)=O)C(N)=O` [VIP], the myocardial fibrosis index result is on record as “significantly lower” in data set [2]; “significantly lower” in [4] (VIP 5 pmol/kg/min for 4 weeks via Alzet minipump vs vehicle control, FIG. 2); “significantly lower” in data set [5] (VIP 5 pmol/kg/min for 4 weeks via Alzet minipump vs vehicle control, L-NAME 10 mg/kg/day, FIG. 3). Further, the “difference between mean myocardial VIP concentrations after VIP or control infusion (VIP uptake by the heart)” value in data set [3] (VIP 10 pmol/kg/min for one hour, low, intermediate, high salt diet or high salt diet plus L-NAME, FIG. 1) is “As fibrosis worsens the amount of VIP taken up by the heart increases; also recorded: increase as the degree of fibrosis increased”. Moreover, the “uptake of VIP by the heart from the plasma” value in data set [3] (acute infusion experiments in animal models with differing levels of fibrosis) is “more avid with increasing degrees of fibrosis; also recorded: the higher the level of fibrosis, the greater the uptake of VIP by the heart”. Besides, the “regression of existing myocardial fibrosis” value is on record as “regression of myocardial fibrosis” in [4] (VIP 5 pmol/kg/min 4 weeks, compared with untreated 14 week old rats, FIG. 4); “regression of myocardial fibrosis” in data set [5] (VIP 5 pmol/kg/min 4 weeks, compared with untreated 14 week old rats, FIG. 5); “regression of myocardial fibrosis” in [6]. The “myocardial content of VIP” value in [4] (after four week intravenous infusion of VIP or vehicle control, FIG. 7A) is “clear association between the degree of fibrosis and uptake of exogenous VIP”; in data set [5] (after four week intravenous infusion of VIP or vehicle control, FIG. 7B), “clear association between the degree of fibrosis and uptake of exogenous VIP”. Further, the “myocardial function (left ventricular functions, coronary flow, tissue injury)” value in data set [7] is given as “significant improvement of myocardial function”. The ionotropic effect entry in data set [8] is reported as “direct positive ionotropic effect”. Also, the “uptake of injected VIP by the heart” value in data set [9] is reported as “not taken up by the normal heart”.
